Source: US12240838B2, “Inhibiting agents for Bruton's tyrosine kinase” (BIOGEN MA INC., priority 2019, dated 2025)

Experiments:
BTK [1] = target: T1, BTK (Homo sapiens (Human), UniProt Q06187); assay: In Vitro PD Assay in Human Whole Blood (pBTK assay); format: cell-based; details: 37° C. for 30 min, 50% inhibition of ECL signal
Description: Human heparinized venous blood was purchased from Bioreclamation, Inc. or SeraCare Life Sciences and shipped overnight. Whole blood was aliquoted into 96-well plate and “spiked” with serial dilutions of test compound in DMSO or with DMSO without drug. The final concentration of DMSO in all wells was 0.1%. The plate was incubated at 37° C. for 30 min. Lysis buffer containing protease and phosphatase inhibitors was added to the drug-containing samples and one of the DMSO-only samples (+PPi, high control), while lysis buffer containing protease inhibitors was added to the other DMSO-only samples (−PPi, low control). All of the lysed whole blood samples were subjected to the total BTK capture and phosphotyrosine detection method described in US20160311802, incorporated herein by reference.

BTK [2] = target: T1, BTK; assay: In Vitro BTK Kinase Assay: BTK-POLYGAT-LS ASSAY; format: biochemical; details: ATP 10 μM, polyGAT 100 nM, BTK 0.25 nM, 30 minutes
Summary of the method: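 BTK (0.25 nM final) with 10 μM ATP and 100 nM polyGAT in pH 7.5 Tris buffer with MgCl2, DTT, Triton X-100 and casein; compound titrated 4-fold. Reaction 30 min, stopped with EDTA. Phosphorylation detected by TR-FRET with Tb-PY20 antibody after 45 min at room temperature; IC50 reported.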

T1 sequence (Q06187 whole entry): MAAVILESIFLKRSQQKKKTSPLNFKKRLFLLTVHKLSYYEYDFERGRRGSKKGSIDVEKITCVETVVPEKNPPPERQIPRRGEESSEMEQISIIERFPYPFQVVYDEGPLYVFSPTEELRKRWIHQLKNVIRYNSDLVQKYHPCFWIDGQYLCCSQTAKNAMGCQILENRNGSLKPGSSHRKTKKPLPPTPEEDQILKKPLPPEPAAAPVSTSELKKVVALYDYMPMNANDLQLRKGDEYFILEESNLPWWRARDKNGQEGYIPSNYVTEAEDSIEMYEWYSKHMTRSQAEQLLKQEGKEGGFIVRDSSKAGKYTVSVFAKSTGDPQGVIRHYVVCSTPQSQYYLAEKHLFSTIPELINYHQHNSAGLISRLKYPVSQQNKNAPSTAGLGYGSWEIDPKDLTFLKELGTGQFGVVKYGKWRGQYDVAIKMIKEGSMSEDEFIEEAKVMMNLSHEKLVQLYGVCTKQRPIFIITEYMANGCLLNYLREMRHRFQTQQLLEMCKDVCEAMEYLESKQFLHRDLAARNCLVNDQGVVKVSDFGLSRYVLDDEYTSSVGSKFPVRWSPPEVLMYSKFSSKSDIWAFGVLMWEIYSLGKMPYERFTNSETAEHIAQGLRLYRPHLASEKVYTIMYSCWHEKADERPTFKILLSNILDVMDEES

Structure (SMILES) | IC50 (BTK [1]) [nM] | IC50 (BTK [2]) [nM]
Cc1cc(-c2ccnc(NC(=O)[C@H]3C[C@@H]3C)c2)ccc1CNC(=O)c1noc(C(C)(C)C)n1 [Compound 5, 5-(tert-butyl)-N-(2-methyl-4-(2-((1S,2S)-2-methylcyclopropane-1-carboxamido)pyridin-4-yl)benzyl)-1,2,4-oxadiazole-3-carboxamide] | ≤ 100 | ≤ 1
C[C@@H](NC(=O)c1noc(C(C)(C)C)n1)c1ccc(-c2cc(NC(=O)C3CC3)ncc2F)cc1Cl [Compound 22, (R)-5-(tert-butyl)-N-(1-(2-chloro-4-(2-(cyclopropanecarboxamido)-5-fluoropyridin-4-yl)phenyl)ethyl)-1,2,4-oxadiazole-3-carboxamide] | 100 to 500 | ≤ 1
Cc1cc(-c2ccnc(NC(=O)C3CC3)c2)c(F)cc1CNC(=O)c1noc(C(C)(C)C)n1 [Compound 13, 5-(tert-butyl)-N-(4-(2-(cyclopropanecarboxamido)pyridin-4-yl)-5-fluoro-2-methylbenzyl)-1,2,4-oxadiazole-3-carboxamide] | ≤ 100 | ≤ 1
C[C@@H](NC(=O)c1noc(C(C)(C)C)n1)c1ccc(-c2ccnc(NC(=O)C3CC3)c2)cc1C(F)(F)F [Compound 78, (R)-5-(tert-butyl)-N-(1-(4-(2-(cyclopropanecarboxamido)pyridin-4-yl)-2-(trifluoromethyl)phenyl)ethyl)-1,2,4-oxadiazole-3-carboxamide] | 100 to 500 | ≤ 1
CC(C)(C)c1noc(C(=O)N[C@@H]2CCCCc3cc(-c4ccnc(NC(=O)[C@@H]5[C@@H]6COC[C@@H]65)c4)ccc32)n1 [Compound 46, N-((R)-2-(2-((1R,5S,6s)-3-oxabicyclo[3.1.0]hexane-6-carboxamido)pyridin-4-yl)-6,7,8,9-tetrahydro-5H-benzo[7]annulen-5-yl)-3-(tert-butyl)-1,2,4-oxadiazole-5-carboxamide] | 500 to 10000 | ≤ 1
Cc1cc(-c2ccnc(NC(=O)C3CC3(C)C)c2)ccc1CNC(=O)c1noc(C(C)(C)C)n1 (stereo not shown) [Compound 48, 5-(tert-butyl)-N-(4-(2-(2,2-dimethylcyclopropane-1-carboxamido)pyridin-4-yl)-2-methylbenzyl)-1,2,4-oxadiazole-3-carboxamide] | > 10000 | 1 to 10
CC(C)(C)c1noc(C(=O)N[C@@H]2CCCCc3cc(-c4ccnc(NC(=O)C5CC5)c4)ccc32)n1 [Compound 18, (R)-3-(tert-butyl)-N-(2-(2-(cyclopropanecarboxamido)pyridin-4-yl)-6,7,8,9-tetrahydro-5H-benzo[7]annulen-5-yl)-1,2,4-oxadiazole-5-carboxamide] | ≤ 100 | ≤ 1
Cc1cc(-c2cc(NC(=O)C3CC3)ncc2Cl)ccc1CNC(=O)c1noc(C(C)(C)C)n1 [Compound 7, 5-(tert-butyl)-N-(4-(5-chloro-2-(cyclopropanecarboxamido)pyridin-4-yl)-2-methylbenzyl)-1,2,4-oxadiazole-3-carboxamide] | 100 to 500 | ≤ 1
Cc1cc(-c2ccnc(NC(=O)[C@@H]3C[C@@H]3F)c2)ccc1CNC(=O)c1noc(C(C)(C)C)n1 (single isomer, unassigned) [Compound 3] | ≤ 100 | ≤ 1
CC(C)(C)c1nc(C(=O)N[C@@H]2CCCOc3cc(-c4ccnc(NC(=O)C5CC5)c4)ccc32)no1 [Compound 54, (R)-5-(tert-butyl)-N-(8-(2-(cyclopropanecarboxamido)pyridin-4-yl)-2,3,4,5-tetrahydrobenzo[b]oxepin-5-yl)-1,2,4-oxadiazole-3-carboxamide] | 100 to 500 | ≤ 1
CC(C)(C)c1noc(C(=O)NCc2ccc(-c3ccnc(NC(=O)C4CC4)c3)c(F)c2C2CC2)n1 [Compound 34, 3-(tert-butyl)-N-(4-(2-(cyclopropanecarboxamido)pyridin-4-yl)-2-cyclopropyl-3-fluorobenzyl)-1,2,4-oxadiazole-5-carboxamide] | 500 to 10000 | ≤ 1
Cc1c([C@@H](C)NC(=O)c2noc(C(C)(C)C)n2)ccc(-c2ccnc(NC(=O)C3CC3)c2)c1F [Compound 71, (R)-5-(tert-butyl)-N-(1-(4-(2-(cyclopropanecarboxamido)pyridin-4-yl)-3-fluoro-2-methyphenyl)ethyl)-1,2,4-oxadiazole-3-carboxamide] | 500 to 10000 | ≤ 1
CC(C)(C)c1nc(C(=O)NCc2ccc(-c3ccnc(NC(=O)C4CC4)c3)cc2OC(F)(F)F)no1 [Compound 107, 5-(tert-butyl)-N-(4-(2-(cyclopropanecarboxamido)pyridin-4-yl)-2-(trifluoromethoxy)benzyl)-1,2,4-oxadiazole-3-carboxamide] | ≤ 100 | ≤ 1
Cc1cc(-c2ccnc(NC(=O)C3CC3)c2)ccc1CNC(=O)c1noc(C(C)(C)CO)n1 [Compound 35, N-(4-(2-(cyclopropanecarboxamido)pyridin-4-yl)-2-methylbenzyl)-5-(1-hydroxy-2-methylpropan-2-yl)-1,2,4-oxadiazole-3-carboxamide] | 500 to 10000 | 1 to 10
Cc1cc(-c2ccnc(NC(=O)C3CC3)c2)ccc1[C@@H](C)NC(=O)c1nc(C(C)(C)C)no1 [Compound 93, (R)-3-(tert-butyl)-N-(1-(4-(2-(cyclopropanecarboxamido)pyridin-4-yl)-2-methylphenyl)ethyl)-1,2,4-oxadiazole-5-carboxamide] | 100 to 500 | ≤ 1
Cc1cc(-c2ccnc(NC(=O)C3CC3)c2)ccc1CNC(=O)c1cn(C(C)(C)C)nn1 [Compound 89, 1-(tert-butyl)-N-(4-(2-(cyclopropanecarboxamido)pyridin-4-yl)-2-methylbenzyl)-1H-1,2,3-triazole-4-carboxamide] | 100 to 500 | 1 to 10
Cc1cc(-c2ccnc(NC(=O)[C@@H]3C[C@H]3F)c2)ccc1CNC(=O)c1noc(C(C)(C)C)n1 [Compound 38, 5-(tert-butyl)-N-(4-(2-((1S,2R)-2-fluorocyclopropane-1-carboxamido)pyridin-4-yl)-2-methylbenzyl)-1,2,4-oxadiazole-3-carboxamide] | 500 to 10000 | ≤ 1
Cc1cc(-c2ccnc(NC(=O)C3CC3)c2)ccc1CNC(=O)c1nc(C(C)(C)CF)no1 [Compound 39, N-(4-(2-(cyclopropanecarboxamido)pyridin-4-yl)-2-methylbenzyl)-3-(1-fluoro-2-methylpropan-2-yl)-1,2,4-oxadiazole-5-carboxamide] | 100 to 500 | ≤ 1
Cc1cc(-c2ccnc(NC(=O)[C@H]3C[C@@H]3F)c2)ccc1CNC(=O)c1noc(C(C)(C)C)n1 [Compound 37, 5-(tert-butyl)-N-(4-(2-((1R,2S)-2-fluorocyclopropane-1-carboxamido)pyridin-4-yl)-2-methylbenzyl)-1,2,4-oxadiazole-3-carboxamide] | 500 to 10000 | ≤ 1
Cc1cc(-c2ccnc(NC(=O)C3CC3)c2)ccc1CNC(=O)c1cnc(C(C)(C)C)s1 [Compound 81, 2-(tert-butyl)-N-(4-(2-(cyclopropanecarboxamido)pyridin-4-yl)-2-methylbenzyl)thiazole-5-carboxamide] | 500 to 10000 | 1 to 10
C[C@@H](NC(=O)c1noc(C(C)(C)C)n1)c1ccc(-c2ccnc(NC(=O)C3CC3)c2)cc1Cl [Compound 21, (R)-5-(tert-butyl)-N-(1-(2-chloro-4-(2-(cyclopropanecarboxamido)pyridin-4-yl)phenyl)ethyl)-1,2,4-oxadiazole-3-carboxamide] | ≤ 100 | ≤ 1
CCc1cc(-c2ccnc(NC(=O)C3CC3)c2)ccc1CNC(=O)c1noc(C(C)(C)C)n1 [Compound 73, 5-(tert-butyl)-N-(4-(2-(cyclopropanecarboxamido)pyridin-4-yl)-2-ethylbenzyl)-1,2,4-oxadiazole-3-carboxamide] | 500 to 10000 | ≤ 1
C[C@@H](NC(=O)c1nc(C(C)(C)C)no1)c1cc(F)c(-c2ccnc(NC(=O)C3CC3)c2)cc1Cl [Compound 70, (R)-3-(tert-butyl)-N-(1-(2-chloro-4-(2-(cyclopropanecarboxamido)pyridin-4-yl)-5-fluorophenyl)ethyl)-1,2,4-oxadiazole-5-carboxamide] | 500 to 10000 | ≤ 1
CC(C)(C)c1noc(C(=O)NC2CCCOc3cc(-c4ccnc(NC(=O)C5CC5)c4)ccc32)n1 (stereo not shown) [Compound 55, 3-(tert-butyl)-N-(8-(2-(cyclopropanecarboxamido)pyridin-4-yl)-2,3,4,5-tetrahydrobenzo[b]oxepin-5-yl)-1,2,4-oxadiazole-5-carboxamide] | 500 to 10000 | ≤ 1
CC(C)(C)n1cc(F)c(C(=O)NCc2ccc(-c3ccnc(NC(=O)C4CC4)c3)c(F)c2C2CC2)n1 [Compound 29, 1-(tert-butyl)-N-(4-(2-(cyclopropanecarboxamido)pyridin-4-yl)-2-cyclopropyl-3-fluorobenzyl)-4-fluoro-1H-pyrazole-3-carboxamide] | 500 to 10000 | 1 to 10
Cc1cc(-c2ccnc(NC(=O)C3CC3)c2)ccc1CNC(=O)c1nnc(C(C)(C)C)o1 [Compound 90, 5-(tert-butyl)-N-(4-(2-(cyclopropanecarboxamido)pyridin-4-yl)-2-methylbenzyl)-1,3,4-oxadiazole-2-carboxamide] | 100 to 500 | 1 to 10
